Consider one molecule from ChEMBL document CHEMBL1165939, “A structure-activity relationship study elucidating the mechanism of sequence-specific collagen recognition by the chaperone HSP47” (Bioorg Med Chem, 2010).

The experiment deals with T1, Serpin H1 (Mus musculus, UniProt P19324).
T1 sequence (P19324 whole entry): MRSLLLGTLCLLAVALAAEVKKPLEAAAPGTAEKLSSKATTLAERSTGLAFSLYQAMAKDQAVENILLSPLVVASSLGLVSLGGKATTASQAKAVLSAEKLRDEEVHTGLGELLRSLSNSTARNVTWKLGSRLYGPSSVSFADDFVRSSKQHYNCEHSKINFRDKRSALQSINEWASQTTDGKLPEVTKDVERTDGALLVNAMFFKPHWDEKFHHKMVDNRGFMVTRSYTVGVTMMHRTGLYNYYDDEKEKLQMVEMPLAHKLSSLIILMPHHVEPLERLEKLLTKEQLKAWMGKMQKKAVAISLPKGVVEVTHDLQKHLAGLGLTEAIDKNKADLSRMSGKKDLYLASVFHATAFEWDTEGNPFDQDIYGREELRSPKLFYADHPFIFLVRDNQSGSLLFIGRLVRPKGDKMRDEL
Kind of experiment: Binding affinity to mouse recombinant HSP47 expressed in Escherichia coli JM109 after 10 mins by surface plasmon resonance assay.

The IC50 is the concentration at which inhibition is half-maximal.

Turning to `N=C(N)NCCC[C@H](NC(=O)[C@@H]1CCCN1C(=O)CNC(=O)[C@H](CCC(=O)O)NC(=O)[C@@H]1CCCN1C(=O)CNC(=O)[C@@H]1CCCN1C(=O)[C@@H]1CCCN1C(=O)CNC(=O)[C@@H]1C[C@@H](O)CN1C(=O)[C@@H]1CCCN1)C(=O)NCC(=O)N1CCC[C@H]1C(=O)N[C@@H](CCCNC(=N)N)C(=O)NCC(=O)N1CCC[C@H]1C(=O)N1CCC[C@H]1C(=O)NCC(=O)N1CCC[C@H]1C(=O)N1CCC[C@H]1C(=O)NCC(=O)N1CCC[C@H]1C(=O)N1CCC[C@H]1C(=O)NCC(=O)N1CCC[C@H]1C(=O)N1CCC[C@H]1C(=O)NCC(N)=O`, the IC50 was above 100 µM.
